For the test, the system named is MV-4-11 cells. Briefly: Gene expression microarray analysis (Affymetrix PrimeView) and GSEA. It counts as cell-based, human. Also on record: RFU PODN (11730768_x_at) / Fold change /veh PODN (11730768_x_at) / RFU LINC00158 (11744669_a_at) / Fold change /veh LINC00158 (11744669_a_at) / RFU DUSP10 (11751237_a_at) / Fold change /veh DUSP10 (11751237_a_at) / RFU ID3 (11757404_x_at) / Fold change /veh ID3 (11757404_x_at) / RFU PLEKHG5 (11737974_s_at) / Fold change /veh PLEKHG5 (11737974_s_at) / RFU LRRC4B (11730491_at) / Fold change /veh LRRC4B (11730491_at) / RFU GIMAP4 (11747438_a_at) / Fold change /veh GIMAP4 (11747438_a_at) / RFU KRT8 (11758183_x_at) / Fold change /veh KRT8 (11758183_x_at) / RFU CNN1 (11734310_a_at) / Fold change /veh CNN1 (11734310_a_at) / RFU VPS37D (11726825_at) / Fold change /veh VPS37D (11726825_at) / RFU C10orf10 (11716522_x_at) / Fold change /veh C10orf10 (11716522_x_at) / RFU KIR2DL2 /// KIR2DL4 /// KIR2DL5A /// KIR2DL5B /// KIR2DS1 /// KIR2DS2 /// KIR2DS3 /// KIR2DS4 /// KIR3DL3 /// KIR3DL3 /// KIR3DS1 (11738374_at) / Fold change /veh KIR2DL2 /// KIR2DL4 /// KIR2DL5A /// KIR2DL5B /// KIR2DS1 /// KIR2DS2 /// KIR2DS3 /// KIR2DS4 /// KIR3DL3 /// KIR3DL3 /// KIR3DS1 (11738374_at) / RFU C1QL1 (11718748_at) / Fold change /veh C1QL1 (11718748_at) / RFU TMPRSS4 (11747572_a_at) / Fold change /veh TMPRSS4 (11747572_a_at) / RFU HAMP (11756126_x_at) / Fold change /veh HAMP (11756126_x_at) / RFU RNFT2 (11725882_a_at) / Fold change /veh RNFT2 (11725882_a_at) / RFU NR4A2 (11747474_a_at) / Fold change /veh NR4A2 (11747474_a_at) / RFU ABCC12 (11746883_a_at) / Fold change /veh ABCC12 (11746883_a_at) / RFU TMEM136 (11760407_x_at) / Fold change /veh TMEM136 (11760407_x_at) / RFU CLDN22 /// WWC2 (11732394_at) / Fold change /veh CLDN22 /// WWC2 (11732394_at) / RFU HLA-DPB1 (11760878_x_at) / Fold change /veh HLA-DPB1 (11760878_x_at) / RFU SPINT1 (11716480_a_at) / Fold change /veh SPINT1 (11716480_a_at) / RFU GAP43 (11754022_s_at) / Fold change /veh GAP43 (11754022_s_at) / RFU A4GNT (11735810_at) / Fold change /veh A4GNT (11735810_at) / RFU PRB3 (11715151_x_at) / Fold change /veh PRB3 (11715151_x_at) / RFU TUBB4B (11761932_at) / Fold change /veh TUBB4B (11761932_at) / RFU CAPN14 (11732068_a_at) / Fold change /veh CAPN14 (11732068_a_at) / RFU TMCC2 (11721928_a_at) / Fold change /veh TMCC2 (11721928_a_at) / RFU IRGQ (11745062_a_at) / Fold change /veh IRGQ (11745062_a_at) / RFU FAM174B (11720279_a_at) / Fold change /veh FAM174B (11720279_a_at) / RFU TMPRSS4 (11748680_a_at) / Fold change /veh TMPRSS4 (11748680_a_at) / RFU FAM212B (11763350_a_at) / Fold change /veh FAM212B (11763350_a_at) / RFU PLEKHG5 (11743358_a_at) / Fold change /veh PLEKHG5 (11743358_a_at) / RFU ZSCAN30 (11745921_a_at) / Fold change /veh ZSCAN30 (11745921_a_at) / RFU CMKLR1 (11741424_a_at) / Fold change /veh CMKLR1 (11741424_a_at) / RFU LOC101060620 /// MAPK8IP1 (11723275_at) / Fold change /veh LOC101060620 /// MAPK8IP1 (11723275_at) / RFU SPTSSB (11747773_x_at) / Fold change /veh SPTSSB (11747773_x_at) / RFU PRSS12 (11739890_at) / Fold change /veh PRSS12 (11739890_at) / RFU BIN1 (11741810_x_at) / Fold change /veh BIN1 (11741810_x_at) / RFU WNT11 (11732464_a_at) / Fold change /veh WNT11 (11732464_a_at) / RFU C10orf10 (11716521_a_at) / Fold change /veh C10orf10 (11716521_a_at) / RFU C5orf56 (11738089_at) / Fold change /veh C5orf56 (11738089_at) / RFU CYB561 (11721691_x_at) / Fold change /veh CYB561 (11721691_x_at) / RFU ANKRD19P (11752326_a_at) / Fold change /veh ANKRD19P (11752326_a_at) / RFU OR2T12 /// OR2T33 /// OR2T8 (11738714_s_at) / Fold change /veh OR2T12 /// OR2T33 /// OR2T8 (11738714_s_at) / RFU VCAN (11748164_a_at) / Fold change /veh VCAN (11748164_a_at) / RFU JSRP1 (11732532_at) / Fold change /veh JSRP1 (11732532_at) / RFU KRTAP10-11 (11738290_x_at) / Fold change /veh KRTAP10-11 (11738290_x_at) / RFU MYO3A (11730013_a_at) / Fold change /veh MYO3A (11730013_a_at) / RFU EBF3 (11725865_a_at) / Fold change /veh EBF3 (11725865_a_at) / RFU CAMK2N1 (11719241_x_at) / Fold change /veh CAMK2N1 (11719241_x_at) / RFU C5orf56 (11738088_a_at) / Fold change /veh C5orf56 (11738088_a_at) / RFU OLFML3 (11715873_a_at) / Fold change /veh OLFML3 (11715873_a_at) / RFU LOC100653217 /// NTM (11731650_a_at) / Fold change /veh LOC100653217 /// NTM (11731650_a_at) / RFU MAPK11 (11762145_a_at) / Fold change /veh MAPK11 (11762145_a_at) / RFU FIZ1 (11724087_x_at) / Fold change /veh FIZ1 (11724087_x_at) / RFU OASL (11726364_x_at) / Fold change /veh OASL (11726364_x_at) / RFU SOX15 (11748057_x_at) / Fold change /veh SOX15 (11748057_x_at) / RFU CD79A (11719716_a_at) / Fold change /veh CD79A (11719716_a_at) / RFU HIST1H1D (11736915_at) / Fold change /veh HIST1H1D (11736915_at) / RFU CASKIN2 (11723855_a_at) / Fold change /veh CASKIN2 (11723855_a_at) / RFU LOC730098 (11760151_x_at) / Fold change /veh LOC730098 (11760151_x_at) / RFU OR4N2 (11742367_at) / Fold change /veh OR4N2 (11742367_at) / RFU PRRT2 (11749266_a_at) / Fold change /veh PRRT2 (11749266_a_at) / RFU SNX32 (11753110_a_at) / Fold change /veh SNX32 (11753110_a_at) / RFU CDHR5 (11726645_a_at) / Fold change /veh CDHR5 (11726645_a_at) / RFU RCAN1 (11760418_a_at) / Fold change /veh RCAN1 (11760418_a_at) / RFU FAM167A (11723789_a_at) / Fold change /veh FAM167A (11723789_a_at) / RFU FAM26E (11764081_at) / Fold change /veh FAM26E (11764081_at) / RFU ISYNA1 (11749810_s_at) / Fold change /veh ISYNA1 (11749810_s_at) / RFU ACY1 (11761880_at) / Fold change /veh ACY1 (11761880_at) / RFU 11764098_at / Fold change /veh 11764098_at / RFU SAMD14 (11745864_x_at) / Fold change /veh SAMD14 (11745864_x_at) / RFU NPB (11741838_a_at) / Fold change /veh NPB (11741838_a_at) / RFU TMPRSS6 (11731388_a_at) / Fold change /veh TMPRSS6 (11731388_a_at) / RFU KRTAP10-2 (11738614_at) / Fold change /veh KRTAP10-2 (11738614_at) / RFU ARHGAP8 /// PRR5-ARHGAP8 (11727945_x_at) / Fold change /veh ARHGAP8 /// PRR5-ARHGAP8 (11727945_x_at) / RFU KRTAP5-7 /// NADSYN1 (11734609_at) / Fold change /veh KRTAP5-7 /// NADSYN1 (11734609_at) / RFU RASL12 (11751679_a_at) / Fold change /veh RASL12 (11751679_a_at) / RFU CDKN2B (11736163_a_at) / Fold change /veh CDKN2B (11736163_a_at) / RFU PRF1 (11729649_at) / Fold change /veh PRF1 (11729649_at) / RFU, ZNF638 /// ZNF638-IT1 / Fold change vs veh, ZNF638 /// ZNF638-IT1 / RFU, PANK3 / Fold change vs veh, PANK3 / RFU, SH3YL1 / Fold change vs veh, SH3YL1 / RFU, ZEB2 / Fold change vs veh, ZEB2 / RFU, NRIP1 / Fold change vs veh, NRIP1 / RFU, PTTG1IP / Fold change vs veh, PTTG1IP / RFU, CAPN2 / Fold change vs veh, CAPN2 / RFU, MED14 / Fold change vs veh, MED14 / RFU, SNORA58 / Fold change vs veh, SNORA58 / RFU, C1orf63 / Fold change vs veh, C1orf63 / RFU, LRRFIP1 / Fold change vs veh, LRRFIP1 / RFU, NDUFAF7 / Fold change vs veh, NDUFAF7 / RFU, SLC12A2 / Fold change vs veh, SLC12A2 / RFU, IBTK / Fold change vs veh, IBTK / RFU, ESF1 / Fold change vs veh, ESF1 / Fold change vs veh, TMEM50B / RFU, TAOK1 / Fold change vs veh, TAOK1 / RFU, ACBD3 / Fold change vs veh, ACBD3 / RFU, TMA16 / Fold change vs veh, TMA16 / RFU, RWDD3 / Fold change vs veh, RWDD3 / RFU, BCAT1 / Fold change vs veh, BCAT1 / RFU, EDEM3 / Fold change vs veh, EDEM3 / RFU, TMEM33 / Fold change vs veh, TMEM33 / RFU, WDR75 / Fold change vs veh, WDR75 / RFU, AHCTF1 / Fold change vs veh, AHCTF1 / RFU, TFRC / Fold change vs veh, TFRC / RFU, ZDHHC17 / Fold change vs veh, ZDHHC17 / RFU, NOM1 / Fold change vs veh, NOM1 / RFU, ARL8B / Fold change vs veh, ARL8B / RFU, ZBTB11 / Fold change vs veh, ZBTB11 / RFU, TAMM41 / Fold change vs veh, TAMM41 / RFU, KIAA1704 /// LOC100996395 / Fold change vs veh, KIAA1704 /// LOC100996395 / RFU, ING1 / Fold change vs veh, ING1 / RFU, TRMT61B / Fold change vs veh, TRMT61B / RFU, FUBP3 / Fold change vs veh, FUBP3 / RFU, TP53 / Fold change vs veh, TP53 / RFU, TNKS2 / Fold change vs veh, TNKS2 / RFU, ZFP14 / Fold change vs veh, ZFP14 / RFU, ACTR2 / Fold change vs veh, ACTR2 / RFU, PPP3R1 / Fold change vs veh, PPP3R1 / RFU, PIK3R1 / Fold change vs veh, PIK3R1 / RFU, HNRNPA1 / Fold change vs veh, HNRNPA1 / RFU, RNF170 / Fold change vs veh, RNF170 / RFU, ZNF28 / Fold change vs veh, ZNF28 / RFU, RNGTT / Fold change vs veh, RNGTT / RFU, OGT / Fold change vs veh, OGT / RFU, BRD1 / Fold change vs veh, BRD1 / RFU, MARS / Fold change vs veh, MARS / RFU, ZNF655 / Fold change vs veh, ZNF655 / RFU, FAHD1 / Fold change vs veh, FAHD1 / RFU, BDP1 / Fold change vs veh, BDP1 / RFU, LRRCC1 / Fold change vs veh, LRRCC1 / RFU, ARID1A / Fold change vs veh, ARID1A / RFU, ZNF146 / Fold change vs veh, ZNF146 / RFU, ZNF330 / Fold change vs veh, ZNF330 / RFU, GPN3 / Fold change vs veh, GPN3 / RFU, C9orf123 / Fold change vs veh, C9orf123 / RFU, N4BP2L2 / Fold change vs veh, N4BP2L2 / RFU, ARFIP1 / Fold change vs veh, ARFIP1 / RFU, FAM179B / Fold change vs veh, FAM179B / RFU, BCL10 / Fold change vs veh, BCL10 / RFU, UHRF1BP1L / Fold change vs veh, UHRF1BP1L / RFU, BET1 / Fold change vs veh, BET1 / RFU, CNOT2 / Fold change vs veh, CNOT2 / RFU, ZNF268 / Fold change vs veh, ZNF268 / Fold change vs veh, ZNF507 / RFU, DGCR2 / Fold change vs veh, DGCR2 / RFU, WDSUB1 / Fold change vs veh, WDSUB1 / Fold change vs veh, HSP90B1 /// MIR3652 / RFU, ADSS / Fold change vs veh, ADSS / RFU, GK / Fold change vs veh, GK / RFU, ZNF148 / Fold change vs veh, ZNF148 / RFU, TAF9 / Fold change vs veh, TAF9 / RFU, SLC1A5 / Fold change vs veh, SLC1A5 / RFU, SLMO2 / Fold change vs veh, SLMO2 / RFU, ABCC4 / Fold change vs veh, ABCC4 / RFU, LOC101060439 /// RAP1B / Fold change vs veh, LOC101060439 /// RAP1B / RFU, RFX7 / Fold change vs veh, RFX7 / RFU, GTPBP10 / Fold change vs veh, GTPBP10 / RFU, CNEP1R1 / Fold change vs veh, CNEP1R1 / RFU, BIVM-ERCC5 /// ERCC5 / Fold change vs veh, BIVM-ERCC5 /// ERCC5 / RFU, ILF3 / Fold change vs veh, ILF3 / RFU 11762660_at / Fold change /veh 11762660_at / RFU VCAN (11757783_s_at) / Fold change /veh VCAN (11757783_s_at) / RFU DDX43 (11728927_at) / Fold change /veh DDX43 (11728927_at) / RFU KRT8 (11758188_x_at) / Fold change /veh KRT8 (11758188_x_at) / RFU NKD1 (11759106_at) / Fold change /veh NKD1 (11759106_at) / RFU SRD5A1 (11742802_a_at) / Fold change /veh SRD5A1 (11742802_a_at) / RFU TPSAB1 /// TPSB2 (11721975_s_at) / Fold change /veh TPSAB1 /// TPSB2 (11721975_s_at) / RFU GSTM3 (11746129_a_at) / Fold change /veh GSTM3 (11746129_a_at) / RFU IL23R (11737362_x_at) / Fold change /veh IL23R (11737362_x_at) / RFU TMEM51 (11727254_a_at) / Fold change /veh TMEM51 (11727254_a_at) / RFU PIWIL2 (11732686_x_at) / Fold change /veh PIWIL2 (11732686_x_at) / RFU ORM1 (11744905_x_at) / Fold change /veh ORM1 (11744905_x_at) / RFU CCDC152 (11743942_at) / Fold change /veh CCDC152 (11743942_at) / RFU ECM1 (11717891_a_at) / Fold change /veh ECM1 (11717891_a_at) / RFU IL23R (11748794_a_at) / Fold change /veh IL23R (11748794_a_at) / RFU TNFAIP8L3 (11732012_x_at) / Fold change /veh TNFAIP8L3 (11732012_x_at) / RFU MBOAT4 (11741988_at) / Fold change /veh MBOAT4 (11741988_at) / RFU 11764193_at / Fold change /veh 11764193_at / RFU TMEM53 (11763286_at) / Fold change /veh TMEM53 (11763286_at) / RFU MAGEB2 (11727129_at) / Fold change /veh MAGEB2 (11727129_at) / RFU TMEM200A (11744735_a_at) / Fold change /veh TMEM200A (11744735_a_at) / RFU CCDC152 (11751479_a_at) / Fold change /veh CCDC152 (11751479_a_at) / RFU FAM211A (11726209_a_at) / Fold change /veh FAM211A (11726209_a_at) / RFU RGS16 (11746705_a_at) / Fold change /veh RGS16 (11746705_a_at) / RFU VCAN (11755009_s_at) / Fold change /veh VCAN (11755009_s_at) / RFU RHOB (11743442_s_at) / Fold change /veh RHOB (11743442_s_at) / RFU RGS16 (11720943_a_at) / Fold change /veh RGS16 (11720943_a_at) / RFU RGS16 (11720944_at) / Fold change /veh RGS16 (11720944_at) / RFU, VPS4B / Fold change vs veh, VPS4B / RFU, CREB1 / Fold change vs veh, CREB1 / RFU, DNAJC13 / Fold change vs veh, DNAJC13 / RFU, GNAQ / Fold change vs veh, GNAQ / RFU, CDK5R1 / Fold change vs veh, CDK5R1 / RFU, ZRANB3 / Fold change vs veh, ZRANB3 / RFU, CUL4A / Fold change vs veh, CUL4A / RFU, CCNY / Fold change vs veh, CCNY / RFU, UFL1 / Fold change vs veh, UFL1 / RFU, COG3 / Fold change vs veh, COG3 / RFU, DIAPH2 / Fold change vs veh, DIAPH2 / RFU, SKA2 / Fold change vs veh, SKA2 / RFU, AFF3 / Fold change vs veh, AFF3 / RFU, LMF1 / Fold change vs veh, LMF1 / RFU, IPO11 / Fold change vs veh, IPO11 / RFU, DFFB / Fold change vs veh, DFFB / RFU, FOXP1 / Fold change vs veh, FOXP1 / RFU, CARD8 / Fold change vs veh, CARD8 / RFU, STRN3 / Fold change vs veh, STRN3 / RFU, ADK / Fold change vs veh, ADK / RFU, RASSF2 / Fold change vs veh, RASSF2 / RFU, WIPF1 / Fold change vs veh, WIPF1 / RFU, LARP1B / Fold change vs veh, LARP1B / RFU, RASA1 / Fold change vs veh, RASA1 / RFU, RB1 / Fold change vs veh, RB1 / RFU, PPFIA1 / Fold change vs veh, PPFIA1 / RFU, MAT2A / Fold change vs veh, MAT2A / RFU, CCT5 / Fold change vs veh, CCT5 / RFU, WDR92 / Fold change vs veh, WDR92 / RFU, CUX1 / Fold change vs veh, CUX1 / RFU, TTC7A / Fold change vs veh, TTC7A / RFU, TMEM135 / Fold change vs veh, TMEM135 / RFU, DEPTOR / Fold change vs veh, DEPTOR / RFU, CPM / Fold change vs veh, CPM / RFU, DNAJB6 / Fold change vs veh, DNAJB6 / RFU, CACNA2D3 / Fold change vs veh, CACNA2D3 / RFU, DTX4 / Fold change vs veh, DTX4 / RFU, TFCP2 / Fold change vs veh, TFCP2 / RFU, GMCL1 /// GMCL1P1 / Fold change vs veh, GMCL1 /// GMCL1P1 / RFU, AEBP2 / Fold change vs veh, AEBP2 / RFU, SNHG1 /// SNORD22 /// SNORD25 /// SNORD26 /// SNORD27 /// SNORD28 /// SNORD29 /// SNORD31 / Fold change vs veh, SNHG1 /// SNORD22 /// SNORD25 /// SNORD26 /// SNORD27 /// SNORD28 /// SNORD29 /// SNORD31 / Fold change (Aza/veh), C12orf56 (ProbeSet 11735607_a_at) / Fold change (ACY-1035/veh), C12orf56 (ProbeSet 11735607_a_at) / Fold change (Aza/veh), FGFR1OP (ProbeSet 11751329_s_at) / Fold change (ACY-1035/veh), FGFR1OP (ProbeSet 11751329_s_at) / Fold change (Aza/veh), VPS36 (ProbeSet 11739960_a_at) / Fold change (ACY-1035/veh), VPS36 (ProbeSet 11739960_a_at) / RFU SYPL1 (11715823_x_at) / Fold change /veh SYPL1 (11715823_x_at) / RFU IGFBP7 (11715501_s_at) / Fold change /veh IGFBP7 (11715501_s_at) / RFU REEP3 (11722064_at) / Fold change /veh REEP3 (11722064_at) / RFU IGLL1 (11728026_x_at) / Fold change /veh IGLL1 (11728026_x_at): dose or concentration left out as unconfirmed. To be noted: MV-4-11 cells, 48 hours.

As for `Nc1ccc(-c2cccs2)cc1NC(=O)c1ccc2c(c1)cc(C1CC1)n2CCN1CCOCC1` [ACY-1035], the “Fold change /veh JSRP1 (11732532_at)” value is given as 0.91.

Values taken from publication PMC5218480 (PLoS ONE, 2017).
